Patent US20240101521A1, “DIAMINOTRIAZINE COMPOUNDS” (BASF SE, priority 2021, published 2024)

Experiments:
Experiment in all cases: greenhouse pre-emergence herbicidal test
Type in all cases: in vivo
Settings in all cases: scale 0 to 100
Setaria faberi = tested on: Setaria faberi
From the text: (§1) The culture containers used were plastic flowerpots containing loamy sand with approximately 3.0% of humus as the substrate. The seeds of the test plants were sown separately for each species.
(§2) For the pre-emergence treatment, the active ingredients, which had been suspended or emulsified in water, were applied directly after sowing by means of finely distributing nozzles. The containers were irrigated gently to promote germination and growth and subsequently covered with transparent plastic hoods until the plants had rooted. This cover caused uniform germination of the test plants, unless this had been impaired by the active ingredients. For the post-emergence treatment, the test plants were first grown to a height of 3 to 15 cm, depending on the plant habit, and only then treated with the active ingredients which had been suspended or emulsified in water. For this purpose, the test plants were either sown directly and grown in the same containers, or they were first grown separately as seedlings and transplanted into the test containers a few days prior to treatment.
(§3) Depending on the species, the plants were kept at 10-25° C. or 20-35° C., respectively.
(§4) The test period extended over 2 to 4 weeks. During this time, the plants were tended, and their response to the individual treatments was evaluated.
(§5) Evaluation was carried out using a scale from 0 to 100. 100 means no emergence of the plants, or complete destruction of at least the aerial moieties, and 0 means no damage, or normal course of growth. A moderate herbicidal activity is given at values of at least 60, a good herbicidal activity is given at values of at least 70, and a very good herbicidal activity is given at values of at least 85.
(§6) The plants used in the greenhouse experiments were of the following species: […]

Echinochloa crus-galli = tested on: Echinochloa crus-galli
From the text: as §1, §2, §3, §4, §5, §6

Amaranthus retroflexus = tested on: Amaranthus retroflexus
From the text: as §1, §2, §3, §4, §5, §6

CCOc1c(Br)cc(F)c(F)c1Nc1nc(N)nc(C2(F)CCCC2)n1 [Example 21]
herbicidal activity (Setaria faberi; pre-emergence, 62,5 g/ha): 100%
herbicidal activity (Echinochloa crus-galli; pre-emergence, 62,5 g/ha): 100%
herbicidal activity (Amaranthus retroflexus; pre-emergence, 62,5 g/ha): 95%

CCC#CCOc1c(Br)cc(F)c(F)c1Nc1nc(N)nc(C2(F)CCCC2)n1 [Example 22]
herbicidal activity (Setaria faberi; pre-emergence, 62,5 g/ha): 100%
herbicidal activity (Echinochloa crus-galli; pre-emergence, 62,5 g/ha): 85%
herbicidal activity (Amaranthus retroflexus; pre-emergence, 62,5 g/ha): 85%

CCOc1c(Cl)cc(F)c(F)c1Nc1nc(N)nc(C(C)(C)F)n1 [Example 23]
herbicidal activity (Setaria faberi; pre-emergence, 62,5 g/ha): 100%
herbicidal activity (Echinochloa crus-galli; pre-emergence, 62,5 g/ha): 100%
herbicidal activity (Amaranthus retroflexus; pre-emergence, 62,5 g/ha): 100%

CCC#CCOc1c(Cl)cc(F)c(F)c1Nc1nc(N)nc(C(C)(C)F)n1 [Example 24]
herbicidal activity (Setaria faberi; pre-emergence, 62,5 g/ha): 100%
herbicidal activity (Echinochloa crus-galli; pre-emergence, 62,5 g/ha): 100%
herbicidal activity (Amaranthus retroflexus; pre-emergence, 62,5 g/ha): 100%

COc1c(Br)ccc(F)c1Nc1nc(N)nc(C2(F)CCCC2)n1 [Example 25]
herbicidal activity (Setaria faberi; pre-emergence, 250 g/ha): 100%
herbicidal activity (Echinochloa crus-galli; pre-emergence, 250 g/ha): 100%
herbicidal activity (Amaranthus retroflexus; pre-emergence, 250 g/ha): 100%

COCOc1c(Br)ccc(F)c1Nc1nc(N)nc(C(C)(C)F)n1 [Example 26]
herbicidal activity (Setaria faberi; pre-emergence, 250 g/ha): 100%
herbicidal activity (Echinochloa crus-galli; pre-emergence, 250 g/ha): 100%
herbicidal activity (Amaranthus retroflexus; pre-emergence, 250 g/ha): 100%

C#CCOc1c(Br)cc(F)c(F)c1Nc1nc(N)nc(C2(F)CCCC2)n1 [Example 27]
herbicidal activity (Setaria faberi; pre-emergence, 31 g/ha): 100%
herbicidal activity (Amaranthus retroflexus; pre-emergence, 31 g/ha): 100%

C#CCOc1c(Cl)cc(F)c(F)c1Nc1nc(N)nc(C(C)(C)F)n1 [Example 28]
herbicidal activity (Setaria faberi; pre-emergence, 62,5 g/ha): 100%
herbicidal activity (Echinochloa crus-galli; pre-emergence, 62,5 g/ha): 100%
herbicidal activity (Amaranthus retroflexus; pre-emergence, 62,5 g/ha): 100%

COc1c(Cl)cc(F)c(F)c1Nc1nc(N)nc(C(C)Cl)n1 (stereo not shown) [Example 38]
herbicidal activity (Setaria faberi; pre-emergence, 62,5 g/ha): 100%
herbicidal activity (Echinochloa crus-galli; pre-emergence, 62,5 g/ha): 100%
herbicidal activity (Amaranthus retroflexus; pre-emergence, 62,5 g/ha): 100%

COc1c(Cl)cc(F)c(F)c1Nc1nc(N)nc(C(C)F)n1 (stereo not shown) [Example 39]
herbicidal activity (Setaria faberi; pre-emergence, 62,5 g/ha): 100%
herbicidal activity (Echinochloa crus-galli; pre-emergence, 62,5 g/ha): 100%
herbicidal activity (Amaranthus retroflexus; pre-emergence, 62,5 g/ha): 100%

COc1c(Cl)cc(F)c(F)c1Nc1nc(N)nc(C(F)C2CC2)n1 (stereo not shown) [Example 40]
herbicidal activity (Setaria faberi; pre-emergence, 62,5 g/ha): 100%
herbicidal activity (Echinochloa crus-galli; pre-emergence, 62,5 g/ha): 100%
herbicidal activity (Amaranthus retroflexus; pre-emergence, 62,5 g/ha): 100%

CCOc1c(Cl)ccc(F)c1Nc1nc(N)nc(C(C)(C)F)n1 [Example 41]
herbicidal activity (Setaria faberi; pre-emergence, 62,5 g/ha): 100%
herbicidal activity (Echinochloa crus-galli; pre-emergence, 62,5 g/ha): 100%
herbicidal activity (Amaranthus retroflexus; pre-emergence, 62,5 g/ha): 100%

CC#CCOc1c(Cl)ccc(F)c1Nc1nc(N)nc(C(C)(C)F)n1 [Example 42]
herbicidal activity (Setaria faberi; pre-emergence, 31 g/ha): 100%
herbicidal activity (Echinochloa crus-galli; pre-emergence, 31 g/ha): 100%
herbicidal activity (Amaranthus retroflexus; pre-emergence, 31 g/ha): 100%

COc1c(Cl)ccc(F)c1Nc1nc(N)nc(C(C)F)n1 (stereo not shown) [Example 43]
herbicidal activity (Setaria faberi; pre-emergence, 62,5 g/ha): 100%
herbicidal activity (Echinochloa crus-galli; pre-emergence, 62,5 g/ha): 100%
herbicidal activity (Amaranthus retroflexus; pre-emergence, 62,5 g/ha): 100%

COc1c(Br)ccc(F)c1Nc1nc(N)nc(C(C)F)n1 (stereo not shown) [Example 44]
herbicidal activity (Setaria faberi; pre-emergence, 62,5 g/ha): 100%
herbicidal activity (Echinochloa crus-galli; pre-emergence, 62,5 g/ha): 100%
herbicidal activity (Amaranthus retroflexus; pre-emergence, 62,5 g/ha): 100%

CCOc1c(Br)ccc(F)c1Nc1nc(N)nc(C(C)(C)F)n1 [Example 45]
herbicidal activity (Setaria faberi; pre-emergence, 62,5 g/ha): 100%
herbicidal activity (Echinochloa crus-galli; pre-emergence, 62,5 g/ha): 100%
herbicidal activity (Amaranthus retroflexus; pre-emergence, 62,5 g/ha): 100%

CC#CCOc1c(Br)ccc(F)c1Nc1nc(N)nc(C(C)(C)F)n1 [Example 46]
herbicidal activity (Setaria faberi; pre-emergence, 62,5 g/ha): 100%
herbicidal activity (Echinochloa crus-galli; pre-emergence, 62,5 g/ha): 100%
herbicidal activity (Amaranthus retroflexus; pre-emergence, 62,5 g/ha): 100%

CC#CCOc1c(Br)cc(F)c(F)c1Nc1nc(N)nc(C(C)(F)F)n1 [Example 47]
herbicidal activity (Setaria faberi; pre-emergence, 62,5 g/ha): 100%
herbicidal activity (Echinochloa crus-galli; pre-emergence, 62,5 g/ha): 100%
herbicidal activity (Amaranthus retroflexus; pre-emergence, 62,5 g/ha): 100%

COc1c(Cl)ccc(F)c1Nc1nc(N)nc(C(C)(F)F)n1 [Example 48]
herbicidal activity (Setaria faberi; pre-emergence, 31 g/ha): 100%
herbicidal activity (Echinochloa crus-galli; pre-emergence, 31 g/ha): 70%
herbicidal activity (Amaranthus retroflexus; pre-emergence, 31 g/ha): 100%

CCC(C)(F)c1nc(N)nc(Nc2c(F)c(Cl)cc(Cl)c2OC)n1 (stereo not shown) [Example 62]
herbicidal activity (Setaria faberi; pre-emergence, 31 g/ha): 100%
herbicidal activity (Echinochloa crus-galli; pre-emergence, 31 g/ha): 100%
herbicidal activity (Amaranthus retroflexus; pre-emergence, 31 g/ha): 100%

CCOc1c(Br)cc(Br)c(F)c1Nc1nc(N)nc(C(C)(C)F)n1 [Example 66]
herbicidal activity (Setaria faberi; pre-emergence, 62 g/ha): 100%
herbicidal activity (Echinochloa crus-galli; pre-emergence, 62 g/ha): 100%
herbicidal activity (Amaranthus retroflexus; pre-emergence, 62 g/ha): 100%

C#CCOc1c(C)cc(Br)c(F)c1Nc1nc(N)nc(C(C)(C)F)n1 [Example 67]
herbicidal activity (Setaria faberi; pre-emergence, 62 g/ha): 100%
herbicidal activity (Echinochloa crus-galli; pre-emergence, 62 g/ha): 100%
herbicidal activity (Amaranthus retroflexus; pre-emergence, 62 g/ha): 100%

CC#CCOc1c(C)cc(Br)c(F)c1Nc1nc(N)nc(C(C)(C)F)n1 [Example 68]
herbicidal activity (Setaria faberi; pre-emergence, 62 g/ha): 100%
herbicidal activity (Echinochloa crus-galli; pre-emergence, 62 g/ha): 100%
herbicidal activity (Amaranthus retroflexus; pre-emergence, 62 g/ha): 100%

COc1c(C)ccc(F)c1Nc1nc(N)nc(C(C)(C)F)n1 [Example 69]
herbicidal activity (Setaria faberi; pre-emergence, 62 g/ha): 100%
herbicidal activity (Echinochloa crus-galli; pre-emergence, 62 g/ha): 100%
herbicidal activity (Amaranthus retroflexus; pre-emergence, 62 g/ha): 100%

CC#CCOc1c(C)ccc(F)c1Nc1nc(N)nc(C(C)(C)F)n1 [Example 70]
herbicidal activity (Setaria faberi; pre-emergence, 62 g/ha): 100%
herbicidal activity (Echinochloa crus-galli; pre-emergence, 62 g/ha): 100%
herbicidal activity (Amaranthus retroflexus; pre-emergence, 62 g/ha): 100%

C#CCOc1c(C)ccc(F)c1Nc1nc(N)nc(C(C)(C)F)n1 [Example 71]
herbicidal activity (Setaria faberi; pre-emergence, 62 g/ha): 100%
herbicidal activity (Echinochloa crus-galli; pre-emergence, 62 g/ha): 100%
herbicidal activity (Amaranthus retroflexus; pre-emergence, 62 g/ha): 100%

COc1c(Cl)cc(Cl)c(F)c1Nc1nc(N)nc(C2(F)CC2)n1 [Example 72]
herbicidal activity (Setaria faberi; pre-emergence, 62 g/ha): 100%
herbicidal activity (Echinochloa crus-galli; pre-emergence, 62 g/ha): 100%
herbicidal activity (Amaranthus retroflexus; pre-emergence, 62 g/ha): 100%

COc1c(Br)cc(C)c(F)c1Nc1nc(N)nc(C(C)(C)F)n1 [Example 73]
herbicidal activity (Setaria faberi; pre-emergence, 62 g/ha): 100%
herbicidal activity (Echinochloa crus-galli; pre-emergence, 62 g/ha): 100%
herbicidal activity (Amaranthus retroflexus; pre-emergence, 62 g/ha): 100%

C#CCOc1c(Br)cc(C)c(F)c1Nc1nc(N)nc(C(C)(C)F)n1 [Example 74]
herbicidal activity (Setaria faberi; pre-emergence, 62 g/ha): 100%
herbicidal activity (Echinochloa crus-galli; pre-emergence, 62 g/ha): 100%
herbicidal activity (Amaranthus retroflexus; pre-emergence, 62 g/ha): 100%

CC#CCOc1c(Br)cc(C)c(F)c1Nc1nc(N)nc(C(C)(C)F)n1 [Example 75]
herbicidal activity (Setaria faberi; pre-emergence, 62 g/ha): 100%
herbicidal activity (Echinochloa crus-galli; pre-emergence, 62 g/ha): 100%
herbicidal activity (Amaranthus retroflexus; pre-emergence, 62 g/ha): 100%

COc1c(Br)cc(Cl)c(F)c1Nc1nc(N)nc(C(C)(C)F)n1 [Example 76]
herbicidal activity (Setaria faberi; pre-emergence, 62 g/ha): 100%
herbicidal activity (Echinochloa crus-galli; pre-emergence, 62 g/ha): 100%
herbicidal activity (Amaranthus retroflexus; pre-emergence, 62 g/ha): 100%

C#CCOc1c(Br)cc(Cl)c(F)c1Nc1nc(N)nc(C(C)(C)F)n1 [Example 77]
herbicidal activity (Setaria faberi; pre-emergence, 62 g/ha): 100%
herbicidal activity (Echinochloa crus-galli; pre-emergence, 62 g/ha): 100%
herbicidal activity (Amaranthus retroflexus; pre-emergence, 62 g/ha): 100%

CC#CCOc1c(Br)cc(Cl)c(F)c1Nc1nc(N)nc(C(C)(C)F)n1 [Example 78]
herbicidal activity (Setaria faberi; pre-emergence, 62 g/ha): 100%
herbicidal activity (Echinochloa crus-galli; pre-emergence, 62 g/ha): 100%
herbicidal activity (Amaranthus retroflexus; pre-emergence, 62 g/ha): 100%

CC(C)(F)c1nc(N)nc(Nc2c(F)c(F)cc(Cl)c2OC(F)F)n1 [Example 80]
herbicidal activity (Setaria faberi; pre-emergence, 62 g/ha): 100%
herbicidal activity (Echinochloa crus-galli; pre-emergence, 62 g/ha): 100%
herbicidal activity (Amaranthus retroflexus; pre-emergence, 62 g/ha): 100%

CC#CCOc1c(Cl)cc(F)c(F)c1Nc1nc(N)nc(C(C)(C)OC)n1 [Example 82]
herbicidal activity (Setaria faberi; pre-emergence, 62 g/ha): 100%
herbicidal activity (Echinochloa crus-galli; pre-emergence, 62 g/ha): 100%
herbicidal activity (Amaranthus retroflexus; pre-emergence, 62 g/ha): 100%

CCOc1c(Cl)cc(Cl)c(F)c1Nc1nc(N)nc(C(C)(C)F)n1 [Example 83]
herbicidal activity (Setaria faberi; pre-emergence, 62 g/ha): 100%
herbicidal activity (Echinochloa crus-galli; pre-emergence, 62 g/ha): 100%
herbicidal activity (Amaranthus retroflexus; pre-emergence, 62 g/ha): 100%

C#CCOc1c(Cl)cc(F)c(F)c1Nc1nc(N)nc(C(C)(F)CCl)n1 (stereo not shown) [Example 86]
herbicidal activity (Setaria faberi; pre-emergence, 62 g/ha): 100%
herbicidal activity (Echinochloa crus-galli; pre-emergence, 62 g/ha): 100%
herbicidal activity (Amaranthus retroflexus; pre-emergence, 62 g/ha): 100%

C#CCOc1c(Br)cc(F)c(F)c1Nc1nc(N)nc(C(C)(C)OC)n1 [Example 87]
herbicidal activity (Setaria faberi; pre-emergence, 62 g/ha): 100%
herbicidal activity (Echinochloa crus-galli; pre-emergence, 62 g/ha): 100%
herbicidal activity (Amaranthus retroflexus; pre-emergence, 62 g/ha): 100%

CC#CC(C)Oc1c(Br)cc(F)c(F)c1Nc1nc(N)nc(C2(F)CCCC2)n1 (stereo not shown) [Example 96]
herbicidal activity (Setaria faberi; pre-emergence, 62 g/ha): 75%
herbicidal activity (Echinochloa crus-galli; pre-emergence, 62 g/ha): 70%
